We go through four compounds from patent US20260182575A1, “MOLECULES HAVING PESTICIDAL UTILITY AND INTERMEDIATES AND PROCESSES RELATED THERETO” (CORTEVA AGRISCIENCE LLC, priority 2022, published 2026).

Format in all cases: in vivo
Assay [1] concerns Neotropical Brown Stink Bug (Euschistus heros, EUSCHE, BSB). The assay is described as follows: Bioassay 5: neotropical brown stink bug, artificial agar diet. The method, then:
Stock solutions were prepared with F1 as well as for each of the active ingredients individually. Test solutions were prepared from the stock solutions. Test solutions were prepared containing F1, the individual active ingredients, and mixtures of F1 with each of the active ingredients. The test solution for F1 and the individual active ingredients were prepared by adding 30 μL of the stock solution to a single well of a 96 well plate, then adding 30 μL of DMSO, followed by the addition of 140 μL of a 2:1 mixture of acetone:water as a diluent to create a 0.03% (w/v) solution. […]
The test solutions were tested against BSB using the following procedure: an artificial agar diet (2% agar, 12% sucrose) was distributed in 48 well plastic plates (Fisher Scientific™). […] The total number of living BSB nymphs was recorded four days after application. […] Percent control was measured using Abbott's correction formula (W. S. Abbott, J. Econ. Entomol. 18 (1925), pp. 265-267) as follows:
where X=No. of live nymphs on solvent check and Y=No. of live nymphs on treated bean segments. In Table B5 the “Expected % Control” was calculated using the method described in Colby S. R., Weeds, 1967, 15, 20-22. […]

Assay [2] deals with Sweet Potato Whitefly (Bemisia tabaci, BEMITA, SPW). The assay is described as follows: Bioassay 2: sweet potato whitefly, cotton seedling foliar spray. Particulars: AI alone. As to the method: Stock solutions were prepared with F1 as well as for each of the active ingredients individually. Test solutions were prepared from the stock solutions. Test solutions were prepared containing F1, the individual active ingredients, and mixtures of F1 with each of the active ingredients. The test solutions for F1 and the individual active ingredients were prepared by adding 500 μL of stock solution to a 25 mL glass vial, then adding 500 μL of acetone, followed by the addition of 9 mL water with 0.025% Tween® 20 to create a 0.001% (w/v) solution. The test solutions containing mixtures of F1, and the individual active ingredients were prepared by adding 500 μL of the active ingredient stock solution to a 25 mL glass vial, followed by 500 μL of the F1 stock solution, then by the addition of 9 mL water with 0.025% Tween® 20 to create a test solution containing 0.001% (w/v) F1 and 0.001% (w/v) of the active ingredient. Each test solution was serially diluted to create desired doses of test solutions (0.001% (w/v), 0.0001% (w/v), 0.00001% (w/v), 0.000001% (w/v), 0.0000001% (w/v), and 0.00000001% (w/v)).
The test solutions were tested against SPW using the following procedure: Cotton seedlings grown in 3-inch pots, pruned so that only one true leaf remained, were used as test substrate. Adult B. tabaci were allowed to colonize the cotton plants and lay eggs for 24 hours after which all adults were removed from the plants using compressed air. Plants were monitored for egg development, and when crawler emergence was underway (>25% emergence based on visual examination using a microscope), the plants were sprayed using the test solutions and methods described above for green peach aphids (GPA). Treated plants were held in a holding room at approximately 25° C. and ambient relative humidity (RH) prior to grading. Evaluation was conducted by counting the number of developed 2-3 instar nymphs per plant under a microscope 7-9 days after treatment. Percent control was measured using Abbott's correction formula (W. S. Abbott, J. Econ. Entomol. 18 (1925), pp. 265-267) as follows:
where X=No. of live nymphs on solvent check plants and Y=No. of live nymphs on treated plants. In Table B2 the “Expected % Control” was calculated using the method described in Colby S. R., Weeds, 1967, 15, 20-22. Bioassay 3: Western Flower Thrips (Frankliniella occidentalis, FRANOC, “WFT”).

Assay [3] has as its system Corn Earworm (Helicoverpa zea, HELIZE, CEW). The experiment in a line: Bioassay 7: corn earworm, artificial diet, 96 well plate.
Assay [4] has as its system Beet Armyworm (Spodoptera exigua, LAPHEG, BAW). The experiment in a line: Bioassay 7: beet armyworm, artificial diet, 96 well plate.

Several values for one entry are separate records, joined by “and”; a condition that tells them apart may be missing. Identical values can stand only once.

On to `Cc1c(COC(=O)[C@@H]2[C@H](/C=C(\Cl)C(F)(F)F)C2(C)C)cccc1-c1ccccc1` (racemic) [Bifenthrin], for which the “Average % Control AI” value in assay [1] (AI alone, Wt % AI 0.0045, EUSCHE, four days) is on record as 60.0%.
`C[C@]1(COC(=O)C2CC2)[C@@H]2C[C@H](O)[C@@]3(C)Oc4cc(-c5cccnc5)oc(=O)c4[C@H](O)[C@@H]3[C@@]2(C)CC[C@@H]1OC(=O)C1CC1` [Afidopyropen]: the “Average % Control AI” value in assay [2] (Wt % AI 0.00001, 7-9 days) is listed as 0.0%.
Regarding `Cc1ccc(COCC(F)(F)F)c(N2C(=O)CS/C2=N\C(=O)Nc2ccc(-c3ncn(-c4ccc(OC(F)(F)F)cc4)n3)cc2F)c1` [F1], the “Average % Control F1” value is 7.1% in assay [1] (F1 alone, Wt % F1 0.0045, EUSCHE nymphs, agar diet, four days after application); 0.0% in assay [3] (F1 alone at 0.00002 wt %); 62.5% and 50.0% in assay [3] (F1 alone at 0.00004 wt %); 12.5% in assay [4] (F1 alone at 0.0000025 wt %); 40.0% in assay [4] (F1 alone at 0.00001 wt %).
On to `CN1COCN(Cc2cnc(Cl)s2)/C1=N\[N+](=O)[O-]` [Thiamethoxam], for which the “Average % Control AI” value in assay [2] (Wt % AI 0.000001, 7-9 days) turned out to be 5.8%; in assay [2] (Wt % AI 0.00001, 7-9 days), 35.9%.
